Our source for the IC50 values is patent US11718600B2, “1,2,3-triazole inhibitors of P97 AAA ATPase activity” (University of Pittsburgh—Of the Commonwealth System of …, priority 2018, dated 2023).

pIC50: −log10 of the molar value.

Sequence of p97 (P55072 whole entry): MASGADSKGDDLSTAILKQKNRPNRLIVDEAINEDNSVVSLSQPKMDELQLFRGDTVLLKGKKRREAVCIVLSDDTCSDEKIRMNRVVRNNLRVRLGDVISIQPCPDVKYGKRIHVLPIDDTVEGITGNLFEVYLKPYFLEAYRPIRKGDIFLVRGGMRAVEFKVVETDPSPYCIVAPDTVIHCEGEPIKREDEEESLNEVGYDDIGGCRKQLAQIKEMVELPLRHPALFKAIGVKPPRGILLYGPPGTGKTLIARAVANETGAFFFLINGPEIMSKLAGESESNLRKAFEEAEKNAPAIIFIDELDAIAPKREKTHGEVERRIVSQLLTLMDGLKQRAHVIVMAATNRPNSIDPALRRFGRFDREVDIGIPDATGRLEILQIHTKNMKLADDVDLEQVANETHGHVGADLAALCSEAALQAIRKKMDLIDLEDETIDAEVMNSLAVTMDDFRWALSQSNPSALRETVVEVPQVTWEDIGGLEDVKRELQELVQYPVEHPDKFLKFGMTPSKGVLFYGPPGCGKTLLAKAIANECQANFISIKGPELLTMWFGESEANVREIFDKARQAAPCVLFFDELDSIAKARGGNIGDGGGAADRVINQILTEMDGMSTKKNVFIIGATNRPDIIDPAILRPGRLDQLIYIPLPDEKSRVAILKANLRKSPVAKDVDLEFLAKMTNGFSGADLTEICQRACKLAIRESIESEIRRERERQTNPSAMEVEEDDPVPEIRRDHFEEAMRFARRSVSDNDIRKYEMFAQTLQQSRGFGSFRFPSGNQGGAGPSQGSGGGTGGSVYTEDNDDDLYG

This assay addresses p97 (Homo sapiens, UniProt P55072). Kind of assay: BioMol Green ATPase assay. To be noted: 200 μM ATP. It counts as biochemical. The text has this:
Biomol Green (Enzo) is a […] from a biochemical reaction. Because of its high sensitivity, the assay is suitable for monitoring enzyme activities at very early substrate conversions requiring very low amount of enzymes.
The assay procedure used may be the same as in Zhang et al., “Altered cofactor regulation with disease-associated p97/VCP mutations,” Proc. Natl. Acad. Sci. USA, 112(14), E1705-E1714 (2015).
The BioMol Green ATPase assay procedure used was that which was disclosed in Zhang, et al., “Altered cofactor regulation with disease-associated p97/VCP mutations,” Proc. Natl. Acad. Sci. USA, 112(14), E1705-E1714 (2015). Compounds also show activity in a cell-based assay such as the ubiquitin assay.
With `CC(C)(C)OC(=O)N1CCN(C(=O)Cn2ncc(-c3cc(F)c(OCc4nnc(SC5C=CCCC5)n4-c4cccnc4)cc3F)n2)CC1` (centres unmarked) [Entry 1], the pIC50 (commonly the negative decadic logarithm of the IC50, by convention in mol/L) is greater than 7.30.

`CC(C)(C)OC(=O)N1CCN(C(=O)Cn2cc(-c3cc(F)c(OCc4nnc(SC5C=CCCC5)n4-c4cccnc4)cc3F)nn2)CC1` (centres unmarked) [Entry 2] had a pIC50 greater than 6.00.

As for `[2H]C1([2H])C([2H])([2H])C([2H])([2H])C([2H])(Sc2nnc(COc3cc(F)c(-c4cnn(CC(=O)N5CCN(C(=O)OC(C)(C)C)CC5)n4)cc3F)n2-c2cccnc2)C1([2H])[2H]` [Entry 3], the pIC50 was greater than 7.30.

In turn, `[2H]C1([2H])C([2H])([2H])C([2H])([2H])C([2H])(Sc2nnc(COc3cc(F)c(-c4cn(CC(=O)N5CCN(C(=O)OC(C)(C)C)CC5)nn4)cc3F)n2-c2cccnc2)C1([2H])[2H]` [Entry 4] had a pIC50 greater than 6.00.

`[2H]C1([2H])C([2H])([2H])C([2H])([2H])C([2H])(Sc2nnc(COc3cc(F)c(-c4cnn(CC(=O)N5CCNCC5)n4)cc3F)n2-c2cccnc2)C1([2H])[2H]` [Entry 5] showed a pIC50 greater than 7.30.

Consider `[2H]C1([2H])C([2H])([2H])C([2H])([2H])C([2H])(Sc2nnc(COc3cc(F)c(-c4cn(CC(=O)N5CCNCC5)nn4)cc3F)n2-c2cccnc2)C1([2H])[2H]` [Entry 6], for which the pIC50 is greater than 6.00.

`CN1CCN(C(=O)Cn2ncc(-c3cc(F)c(OCc4nnc(SC5C=CCCC5)n4-c4cccnc4)cc3F)n2)CC1` (centres unmarked) [Entry 7] gave a pIC50 greater than 7.30.

With `CC(C)(C)OC(=O)N1CCN(CCn2ncc(-c3cc(F)c(OCc4nnc(SC5C=CCCC5)n4-c4cccnc4)cc3F)n2)CC1` (centres unmarked) [Entry 8], the pIC50 is greater than 7.00.

Turning to `OCCn1ncc(-c2cc(F)c(OCc3nnc(SC4C=CCCC4)n3-c3cccnc3)cc2F)n1` (centres unmarked) [Entry 9], the pIC50 is greater than 7.30.

In the case of `CN1CCC(NC(=O)OCCn2ncc(-c3cc(F)c(OCc4nnc(SC5C=CCCC5)n4-c4cccnc4)cc3F)n2)CC1` (centres unmarked) [Entry 10], the pIC50 was greater than 7.30.

The compound `CNC(=O)OCCn1ncc(-c2cc(F)c(OCc3nnc(S[C@H]4C=CCCC4)n3-c3cccnc3)cc2F)n1` [Entry 11] had a pIC50 greater than 7.30.

On to `CN1CCN(C(=O)OCCn2ncc(-c3cc(F)c(OCc4nnc(S[C@H]5C=CCCC5)n4-c4cccnc4)cc3F)n2)CC1` [Entry 12], for which the pIC50 was greater than 7.00.

As to `CN1CCN(C(=O)Cn2ncc(-c3cc(F)c(OCc4nnc(S[C@H]5C=CCCC5)n4-c4cccnc4)cc3F)n2)CC1` [Entry 13], the pIC50 was greater than 7.30.

In turn, `Fc1cc(-c2cnn(CCOCc3ccccc3)n2)c(F)cc1OCc1nnc(SC2C=CCCC2)n1-c1cccnc1` (centres unmarked) [Entry 14] gave a negative logarithm of the IC50 (pIC50) greater than 6.00.

`OCCn1ncc(-c2cc(F)c(OCc3nnc(S[C@H]4C=CCCC4)n3-c3cccnc3)cc2F)n1` [Entry 15] had a pIC50 greater than 7.30.

Turning to `CC(C)(C)OC(=O)N1CCN(C(=O)Cn2ncc(-c3cc(F)c(OCc4nnc(S[C@@H]5C=CCCC5)n4-c4cccnc4)cc3F)n2)CC1` [Entry 16], the negative-log IC50 (pIC50) is greater than 6.00.

For `CC(C)(C)OC(=O)N1CCN(C(=O)Cn2ncc(-c3cc(F)c(OCc4nnc(S[C@H]5C=CCCC5)n4-c4cccnc4)cc3F)n2)CC1` [Entry 17], the pIC50 was greater than 7.30.

Take `OCCn1cc(-c2cc(F)c(OCc3nnc(SC4C=CCCC4)n3-c3cccnc3)cc2F)nn1` (centres unmarked) [Entry 18]: the pIC50 is greater than 6.00.

Compound `CN1CCC(NC(=O)OCCn2cc(-c3cc(F)c(OCc4nnc(SC5C=CCCC5)n4-c4cccnc4)cc3F)nn2)CC1` (centres unmarked) [Entry 19] showed a pIC50 greater than 6.00.

In turn, `COC(=O)Cn1ncc(-c2cc(F)c(OCc3nnc(SC4C=CCCC4)n3-c3cccnc3)cc2F)n1` (centres unmarked) [Entry 20] had a pIC50 greater than 7.30.

`O=C(O)Cn1ncc(-c2cc(F)c(OCc3nnc(SC4C=CCCC4)n3-c3cccnc3)cc2F)n1` (centres unmarked) [Entry 21] showed a pIC50 greater than 7.00.

Compound `CN1CCC(NC(=O)Cn2ncc(-c3cc(F)c(OCc4nnc(SC5C=CCCC5)n4-c4cccnc4)cc3F)n2)CC1` (centres unmarked) [Entry 22] gave a negative logarithm of the IC50 (pIC50) greater than 7.30.

For `COC(=O)Cn1ncc(-c2cc(F)c(OCc3nnc(S[C@H]4C=CCCC4)n3-c3cccnc3)cc2F)n1` [Entry 23], the pIC50 was greater than 7.30.
